Where a name gives a salt, the structure may show the parent alone.
Key:
whole blood cells = experiment: Membrane potential ratio (MPR) test on blood cells of patients under drug treatment; type: in vivo, human; conditions: for MPR value: Example 6, patient with ADHD
Procedure: The MPR™ test is used to diagnose BD and ADHD. Briefly, the MPR™ test involves measuring the membrane potential of the human cells in a test buffer and in a reference buffer and calculating the ratio of these membrane potentials.
Briefly, the membrane potentials of whole blood cells are measured using two different buffers in a plate reader. The mean MPR™ value is the ratio between the membrane potential of a patient's cells in the test buffer as the numerator and that in the reference buffer as the denominator determined by statistical analysis of multiple measurements, using the ANOVA and the multiple statistical regression analysis.
The membrane potential of a patient's cells may be ascertained by any conventional method, such as by examining the fluorescence intensity of a potential-sensitive lipophilic fluorescent dye. The membrane potential is directly proportional to the intensity of fluorescence according to the following equation: I=CV, wherein I is the fluorescence intensity of a lipophilic fluorescent dye, V is the voltage or membrane potential, and C is a constant that can vary depending on a number of factors such as, but not limited to, temperature, lamp intensity, number of cells, concentration of the fluorescent dye, incubation time, and lipid composition of cells used. The calibration and determination of the value for C can be a cumbersome and unreliable procedure. Thus, according to the present invention, by using the ratio of the fluorescence intensity (I1) of one sample of cells to the fluorescence intensity (I2) of another sample of cells, the constant (C) is canceled out. Such ratio-metric measurements are preferred over absolute measurements.
(§1) Certain patients from the outpatient private psychiatric practice were retested after widely varying intervals as shown in the following Examples. Participation was completely voluntary and only allowed after the signing of a consent form. For the purpose of maintaining the privacy of the subject the lab work was performed confidentially (called blinding of the tester). Each patient was assigned an identification (ID) number and only the clinician had access to the key which correlated ID numbers with patient names.

[1] = test system: human patient with BD or ADHD; experiment: Clinical response of outpatient psychiatric patients to medication (clinical vignettes); type: in vivo; conditions: for Clinical stabilization of Bipolar I Disorder: Example 4, person, combination: aripiperazole, citalopram, oxcarbazepine and alprazolam
Procedure: as §1

human patient = experiment: Side effects reported by patients on medication; type: in vivo; conditions: for Side effects: Example 5, combination: sertraline 50 mg per day and lamotrigine 200 mg per day
human patient with ADHD = experiment: WHO screener for ADHD symptoms (patient self-report); type: in vivo; conditions: for WHO screener, score on the 6 screening items / WHO screener, score out of the total possible of 18: Example 5, combination: sertraline 50 mg per day and lamotrigine 200 mg per day
Procedure: Certain patients from the outpatient private psychiatric practice were retested after widely varying intervals as shown in the following Examples. Participation was completely voluntary and only allowed after the signing of a consent form. For the purpose of maintaining the privacy of the subject the lab work was performed confidentially (called blinding of the tester). Each patient was assigned an identification (ID) number and only the clinician had access to the key which correlated ID numbers with patient names. Because these were and are patients presenting for treatment, the priority has been their treatment. They have manifested all the typical variability found in clinical practice, and the resulting data points obtained are those possible under these circumstances. The paired MPR™ results are presented along with clinical vignettes. The patients with repeated tests are shown in example 1 and their vignettes are elucidated here. This clinical data and its interpretation provide the basis for the claims of the invention.

[2] = Example 4, combination: escitalopram 10 mg per day, aripiperazole 2 mg per day, alprazolam 0.5 mg twice a day as needed, tapering from oxcarbazepine (A in FIG. 4)
[3] = Example 2, combination: dextroamphetamine sulfate 5 mg three times per day and extended release dexmethylphenidate 20 mg morning and afternoon (C in FIG. 2)
[4] = Example 5, combination: sertraline 50 mg per day and lamotrigine 200 mg per day (B in FIG. 5)
[5] = Example 3, person with BD, combination: lithium, quetiapine and mirtazapine (B in FIG. 3)
[6] = Example 1, combination: selegiline transdermal 12 mg per 24 hours and mixed amphetamine salts 15 mg per day

Compound: Cc1nnc2n1-c1ccc(Cl)cc1C(c1ccccc1)=NC2 [alprazolam]
- MPR test range (whole blood cells; [2]): bipolar transition range
- Clinical stabilization of Bipolar I Disorder [1]: not fully stabilized

Compound: O=C1CCc2ccc(OCCCCN3CCN(c4cccc(Cl)c4Cl)CC3)cc2N1 [aripiperazole]
- MPR test range (whole blood cells; [2]): bipolar transition range
- Clinical stabilization of Bipolar I Disorder [1]: not fully stabilized

Compound: CC(NC(C)(C)C)C(=O)c1cccc(Cl)c1 (stereo not drawn) [bupropion]
- Clinical benefit by history ([1]; Example 5, earlier treatment, patient history): had not offered a benefit

Compound: C[C@H](N)Cc1ccccc1 [dextroamphetamine sulfate]
- MPR test result range (whole blood cells; [3]): ADHD transition range

Compound: CN(C)CCC[C@@]1(c2ccc(F)cc2)OCc2cc(C#N)ccc21 [escitalopram]
- MPR test range (whole blood cells; [2]): bipolar transition range

Compound: COC(=O)[C@H](c1ccccc1)[C@H]1CCCCN1 [extended release dexmethylphenidate, dexmethylphenidate]
- MPR test result range (whole blood cells; [3]): ADHD transition range
- Clinical benefit as reported by patient ([1]; Example 2, combination of dextroamphetamine and extended release dexmethylphenidate, compared with mixed amphetamine salts 40 mg): not working as well

Compound: Nc1nnc(-c2cccc(Cl)c2Cl)c(N)n1 [lamotrigine]
- MPR result range (whole blood cells; [4]): ADHD range
- Side effects (human patient): without complaint of side effects
- WHO screener, score on the 6 screening items (human patient with ADHD): 0
- WHO screener, score out of the total possible of 18 (human patient with ADHD): 1
- Clinical benefit ([1]; Example 5, tapered up as per a starter pack, subject able to return to work): offered benefit quickly

Compound: COC(=O)C(c1ccccc1)C1CCCCN1 (stereo not drawn) [methylphenidate]
- MPR value (whole blood cells; 10 mg (FIG. 6)): close to the BD side of the negative range
- MPR value (whole blood cells; dose reduced to 5 mg (FIG. 6)): moved up close to the right value
- Clinical effect on ADHD symptoms reported by subject ([1]; Example 4, 10 mg twice per day, later 10 mg three times per day, added to BD medication): benefit

Compound: CN1CCN2c3ncccc3Cc3ccccc3C2C1 (stereo not drawn) [mirtazapine]
- MPR result range (whole blood cells; [5]): negative (normal) range
- Outcome of trial of adding the drug (depression) ([1]; Example 1, added to mixed amphetamine salts): unsuccessful

Compound: NC(=O)N1c2ccccc2CC(=O)c2ccccc21 [oxcarbazepine]
- Clinical stabilization of Bipolar I Disorder [1]: not fully stabilized

Compound: OCCN1CCN(CCCN2c3ccccc3Sc3ccc(Cl)cc32)CC1 [perphenazine]
- Side effect leading to discontinuation (human patient; Example 3, very low dosage for neurotic anxiety): blurred vision

Compound: OCCOCCN1CCN(C2=Nc3ccccc3Sc3ccccc32)CC1 [quetiapine]
- MPR result range (whole blood cells; [5]): negative (normal) range
- MPR test range (whole blood cells; Example 4, after addition of lithium 600 mg per day and Seroquel 100 mg at bedtime (B in FIG. 4)): ADHD range
- Mood stabilization ([1]; Example 4, addition of lithium 600 mg per day and Seroquel 100 mg at bedtime): further stabilized clinically

Compound: C#CCN(C)[C@H](C)Cc1ccccc1 [selegiline transdermal, selegiline]
- WHO screener, positive items of the six items (human patient with ADHD; [6]): 1

Compound: CN[C@H]1CC[C@@H](c2ccc(Cl)c(Cl)c2)c2ccccc21 [sertraline]
- MPR result range (whole blood cells; [4]): ADHD range
- MPR result range (whole blood cells; Example 5, initial evaluation, subject on sertraline 100 mg at bedtime (A in FIG. 5)): BD transition range
- Side effects (human patient): without complaint of side effects
- WHO screener, score on the 6 screening items (human patient with ADHD): 0
- WHO screener, score out of the total possible of 18 (human patient with ADHD): 1
- Clinical effect on depression according to the subject ([1]; Example 5, person, 100 mg at bedtime): no longer working

Compound: mixed amphetamine salts
- MPR value range (whole blood cells; Example 1, blood drawn third week after stopping mixed amphetamine salts (B in FIG. 1)): ADHD range
- MPR value range (whole blood cells; Example 1, person, taking only mixed amphetamine salts (A in FIG. 1)): negative (normal) range
- MPR test result range (whole blood cells; Example 2, 40 mg every morning, with lamotrigine for BD (B in FIG. 2)): negative range
- WHO screener, positive items of the six items (human patient with ADHD; [6]): 1
- WHO screener, positive items of the 6 items (human patient with ADHD; Example 1, taking only mixed amphetamine salts): 3
- WHO screener, positive items of the 6 items (human patient with ADHD; Example 1, two weeks after stopping mixed amphetamine salts): 4
- WHO screener, positive items of the six items (human patient with ADHD; Example 2, 40 mg every morning): two
- Symptomatic control of ADHD ([1]; Example 2, 40 mg every morning): good symptomatic control
